The source of these data is patent publication US8697694B2, “Substituted pyridine and pyrimidine derivatives and their use in treating viral infections” (priority 2008, dated 2014).

In one test the test system is HCV replicon cells. Nature of the test: Cell-based HCV replicon assay (replicon RNA level by real time PCR, Taqman). The following applies: HCV replicon cells, replicon RNA level by real time PCR, harvested day 3; read-out: EC90 (μM) range. An outline of the steps: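 HCV replicon cells treated 3 days with 10 serial 2-fold compound dilutions (top 25 μM to 1 μM; 0.5% DMSO, 10% FBS). Replicon RNA quantified by multiplex Taqman RT-PCR (NS5B amplicon, GAPDH control); EC50 and EC90 = concentrations giving ΔCT of 1 and 3.2 over baseline.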
Take `Cc1nc(N[C@H](C)c2ccc(OC(F)(F)F)cc2)nc(N[C@@H]2C[C@H](C(C)O)[C@@H](O)[C@H]2O)c1-c1nc2ccccc2s1` (single isomer, unassigned) [Example 1646]: the EC90 was 0.5 to 5 µM.

Staying with this test, now noted: Hepatitis C virus, 72 h, HCV replicon cells, harvested day 3, replicon RNA by real time PCR; given as number; read-out: EC90 (μM) range.
In the case of `Cc1nc(NCC2CC2)nc(N[C@@H]2C[C@H](CO)[C@@H](O)[C@H]2O)c1-c1cc2cc(OCC(F)(F)F)nc(C)c2o1` [Example 47], the EC90 was found to be 0.4 µM.

In the case of `CCC(CC)Oc1cc2cc(-c3c(C)nc(NCC4CC4)nc3N[C@@H]3C[C@H](CO)[C@@H](O)[C@H]3O)oc2c(C)n1` [Example 44], the EC90 is greater than 25 µM.

Consider `Cc1nc(NCC(F)(F)F)nc(N[C@H]2C[C@H](O)[C@@H]3C[C@@H]32)c1-c1nc2ccccc2s1` [Example 53], for which the EC90 is 2.1 µM.

With `CCOc1cc2cc(-c3c(C)nc(NC)nc3N[C@@H]3C[C@H](CO)[C@@H](O)[C@H]3O)oc2c(C)n1` [Example 28], the EC90 amounted to 0.45 µM.

The test is the same for the next values; noted with them: Hepatitis C virus, 72 h, HCV replicon cells, harvested day 3, replicon RNA by real time PCR; reported as range class; read-out: EC90 (μM) range.
`Cc1nc(NCCCC(F)(F)F)nc(N[C@@H]2C[C@H](CO)[C@@H](O)[C@H]2O)c1-c1nc2ccccc2s1` [Example 225]: the EC90 is less than 0.5 µM.

For `Nc1nc(Cl)c(-c2ccc(Oc3ccccc3)cc2)c(N[C@@H]2C[C@H](CO)[C@@H](O)[C@H]2O)n1` [Example 101], the EC90 is greater than 5 µM.

Consider `COCCNc1nc(Cl)c(-c2nc3ccccc3s2)c(N[C@@H]2C[C@H](CO)[C@@H](O)[C@H]2O)n1` [Example 201], for which the EC90 is less than 0.5 µM.

On to `Nc1nc(Cl)c(-c2cscn2)c(N[C@@H]2C[C@H](CO)[C@@H](O)[C@H]2O)n1` [Example 161], for which the EC90 is greater than 5 µM.

As for `CC(=O)OCCNc1nc(C)c(-c2nc3ccccc3s2)c(N[C@@H]2C[C@H](CO)[C@@H](O)[C@H]2O)n1` [Example 211], the EC90 is less than 0.5 µM.

`CNc1ccc2nc(-c3c(Cl)nc(N)nc3N[C@@H]3C[C@H](CO)[C@@H](O)[C@H]3O)sc2c1` [Example 196]: the EC90 is less than 0.5 µM.

Consider `COC[C@H]1C[C@@H](Nc2nc(N(C)C)nc(C)c2-c2nc3ccccc3s2)[C@H](O)[C@@H]1O` [Example 123], for which the EC90 is greater than 5 µM.

Turning to `CCOc1cc2cc(-c3c(C)nc(Nc4ccccc4)nc3N[C@@H]3C[C@H](CO)[C@@H](O)[C@H]3O)oc2c(C)n1` [Example 33], the EC90 was greater than 5 µM.

As for `CC(C)OCCNc1nc(Cl)c(-c2nc3ccccc3s2)c(N[C@@H]2C[C@H](CO)[C@@H](O)[C@H]2O)n1` [Example 219], the EC90 was less than 0.5 µM.

Consider `Nc1nc(Cl)c(-c2nc3c(F)cc(F)cc3s2)c(N[C@@H]2C[C@H](CO)[C@@H](O)[C@H]2O)n1` [Example 189], for which the EC90 was 0.5 to 5 µM.

The test is the same for the next values; noted with them: Hepatitis C virus, 72 h, HCV replicon cells, harvested on day 3, replicon RNA by real time PCR; calculated EC90 reported as range class; read-out: EC90 (μM) range.
As for `Cc1nc(NCCNC(=O)NC(C)(C)C)nc(N[C@@H]2C[C@H](CO)[C@@H](O)[C@H]2O)c1-c1nc2ccccc2s1` [Example 250], the EC90 is 0.5 to 5 µM.

Take `Cc1nc(NCCN(C)C)nc(N[C@@H]2C[C@H](CO)[C@H]3OC(C)(C)O[C@H]32)c1-c1nc2ccccc2s1` [Example 245]: the EC90 is greater than 5 µM.

As to `CCc1cc2cc(-c3c(Cl)nc(NCC(C)C)nc3N[C@@H]3C[C@H](CO)[C@@H](O)[C@H]3O)oc2cn1` [Example 518], the EC90 is less than 0.5 µM.

Regarding `CCCCCNc1nc(Cl)c(-c2cc3cc(CCC)nc(C)c3o2)c(N[C@@H]2C[C@H](CO)[C@@H](O)[C@H]2O)n1` [Example 446], the EC90 is less than 0.5 µM.

On to `CN(C)c1nc(Cl)c(-c2cc3ccncc3o2)c(N[C@@H]2C[C@H](CO)[C@@H](O)[C@H]2O)n1` [Example 522], for which the EC90 was 0.5 to 5 µM.

`CCCCCNc1nc(C)c(-c2cc3cc(C)nc(C)c3o2)c(N[C@@H]2C[C@H](CO)[C@@H](O)[C@H]2O)n1` [Example 452]: the EC90 was less than 0.5 µM.

Take `COc1cc(CNc2nc(C)c(-c3cc4cc(OC)nc(C)c4o3)c(N[C@@H]3C[C@H](CO)[C@@H](O)[C@H]3O)n2)cc(OC)c1` [Example 348]: the EC90 is less than 0.5 µM.

`Cc1nc(NC(CF)CF)nc(N[C@@H]2C[C@H](CO)[C@@H](O)[C@H]2O)c1-c1nc2ccccc2s1` [Example 130]: the EC90 was greater than 5 µM.

For `Cc1nc(NCC2CCOCC2)nc(N[C@@H]2C[C@H](CO)[C@@H](O)[C@H]2O)c1-c1nc2ccccc2s1` [Example 449], the EC90 is less than 0.5 µM.

In the case of `CCOCCNc1nc(C)c(-c2nc(C)c(C)s2)c(N[C@@H]2C[C@H](CO)[C@H]3OC(C)(C)O[C@H]32)n1` [Example 133], the EC90 is greater than 5 µM.

On to `C[C@H](Nc1nc(Cl)c(-c2nc3ccccc3s2)c(N[C@@H]2C[C@H](CO)[C@@H](O)[C@H]2O)n1)c1ccccc1` [Example 440], for which the EC90 is 0.5 to 5 µM.

The test is the same for the next values; noted with them: Hepatitis C virus, 72 h, HCV replicon cells, replicon RNA level by real time PCR (Taqman), day 3; calculated EC90; read-out: EC90 (μM) range.
Take `Cc1ccc(CNc2nc(C)c(-c3nc4ncccc4o3)c(N[C@@H]3C[C@H](CO)[C@@H](O)[C@H]3O)n2)cc1` [Example 2007]: the EC90 is less than 0.5 µM.

Still in this test, the particulars now being: Hepatitis C virus, 72 h, HCV replicon cells, replicon RNA level by real time PCR (Taqman), harvested on day 3; calculated EC90 reported as range class; read-out: EC90 (μM) range.
Consider `CCOCCNc1nc(C)c(-c2nc3cc(OC(F)F)c(OC(F)F)cc3s2)c(N[C@@H]2C[C@H](CO)[C@@H](O)[C@H]2O)n1` [Example 1002], for which the EC90 is 0.5 to 5 µM.

Consider `CCOCCNc1nc(C)c(-c2nc3cc(OC)ccc3s2)c(N[C@@H]2C[C@H](CO)[C@@H](O)[C@H]2O)n1` [Example 1008], for which the EC90 was 0.5 to 5 µM.

As for `COc1cc(OC)cc(C(C)Nc2nc(C)c(-c3nc4cnccc4s3)c(N[C@@H]3C[C@H](CO)[C@@H](O)[C@H]3O)n2)c1` (some centres unmarked) [Example 1306], the EC90 was less than 0.5 µM.

Consider `Cc1nc(Nc2cccc(F)c2)nc(N[C@@H]2C[C@H](CO)[C@@H](O)[C@H]2O)c1-c1nc2ccccc2s1` [Example 1042], for which the EC90 is greater than 5 µM.

On to `Cc1nc(N[C@@H](C)C(C)(C)C)nc(N[C@@H]2C[C@H](CO)[C@@H](O)[C@H]2O)c1-c1nc2cnccc2s1` [Example 1310], for which the EC90 was 0.5 to 5 µM.

`Cc1nc(Nc2ccccc2F)nc(N[C@@H]2C[C@H](CO)[C@@H](O)[C@H]2O)c1-c1nc2ccccc2s1` [Example 1043]: the EC90 was greater than 5 µM.

Regarding `Cc1cc2nc(-c3c(C)nc(NCC(F)(F)F)nc3N[C@@H]3C[C@H](CO)[C@@H](O)[C@H]3O)sc2cc1C` [Example 1061], the EC90 was 0.5 to 5 µM.

In the case of `Cc1cc2sc(-c3c(C)nc(N[C@@H](C)c4ccc(OC(F)(F)F)cc4)nc3N[C@@H]3C[C@H](CO)[C@@H](O)[C@H]3O)nc2c(C)n1` [Example 1137], the EC90 was less than 0.5 µM.

As to `Cc1nc(NCc2cccs2)nc(N[C@@H]2C[C@H](CN)[C@@H](O)[C@H]2O)c1-c1nc2ccccc2s1` [Example 1328], the EC90 was less than 0.5 µM.

As for `Cc1nc(N(C)Cc2ccccc2)nc(N[C@@H]2C[C@H](CO)[C@@H](O)[C@H]2O)c1-c1nc2ccccc2s1` [Example 1116], the EC90 is greater than 5 µM.

`Cc1nc(NCC2CC2)nc(N[C@@H]2C[C@H](CO)C[C@H]2O)c1-c1nc2ccccc2s1` [Example 1251]: the EC90 was 0.5 to 5 µM.

`Cc1nc(NC2(c3ccccc3)CC2)nc(N[C@@H]2C[C@H](CO)[C@@H](O)[C@H]2O)c1-c1nc2ccccc2s1` [Example 1232]: the EC90 is 0.5 to 5 µM.

Consider `COc1ccccc1CNc1nc(C)c(-c2nc3ccccc3s2)c(N[C@@H]2C[C@H](CO)[C@@H](O)[C@H]2O)n1` [Example 1207], for which the EC90 was 0.5 to 5 µM.

As to `CNC[C@H]1C[C@@H](Nc2nc(NCC(F)(F)F)nc(C)c2-c2nc3ccccc3s2)[C@H](O)[C@@H]1O` [Example 1071], the EC90 was 0.5 to 5 µM.

The same test, now with this note: Hepatitis C virus, 72 h, HCV replicon cells, replicon RNA level by real time PCR, harvested day 3; read-out: EC90 (μM) range.
For the compound `Cc1ccccc1[C@H](Nc1nc(C)c(-c2nc3c(C)nccc3s2)c(N[C@@H]2C[C@H](CO)[C@@H](O)[C@H]2O)n1)C(F)(F)F` [Example 1539], the EC90 was less than 0.5 µM.

Regarding `Cc1nc(Nc2cccc3cccnc23)nc(N[C@@H]2C[C@H](CO)[C@@H](O)[C@H]2O)c1-c1nc2ccccc2s1` [Example 1620], the EC90 was greater than 5 µM.

Consider `Cc1nc(NCC(F)(F)F)nc(NC2CCN(C(=O)OC(C)(C)C)C2)c1-c1nc2ccccc2s1` (centres unmarked) [Example 1515], for which the EC90 lay within 0.5 to 5 µM.

With `CCCc1nccc2sc(-c3c(C)nc(N[C@H](C)C4CC4)nc3N[C@@H]3C[C@H](CS(C)(=O)=O)[C@@H](O)[C@H]3O)nc12` [Example 1381], the EC90 is less than 0.5 µM.

On to `Cc1nc(NC2CC2)nc(N[C@@H]2C[C@H](CO)[C@@H](O)[C@H]2O)c1-c1nc2c(C3CC3)nccc2s1` [Example 1402], for which the EC90 was less than 0.5 µM.

In the case of `CCOc1cc2sc(-c3c(C)nc(N[C@H](C)c4ccc(C)cc4)nc3N[C@@H]3C[C@H](CO)[C@@H](O)[C@H]3O)nc2c(C)n1` [Example 1375], the EC90 was less than 0.5 µM.

As for `Cc1nc(NCCc2cccs2)nc(N[C@@H]2C[C@H](CO)[C@@H](O)[C@H]2O)c1-c1nc2ccccc2s1` [Example 1805], the EC90 is less than 0.5 µM.

Take `Cc1nc(NCC(F)(F)F)nc(N[C@@H]2C[C@H](CO)[C@@H](O)[C@@]2(C)O)c1-c1nc2cnccc2s1` [Example 1709]: the EC90 was less than 0.5 µM.

Turning to `CCS(=O)(=O)NC[C@H]1C[C@@H](Nc2nc(NCC(F)(F)F)nc(C)c2-c2nc3ccccc3s2)[C@H](O)[C@@H]1O` [Example 1521], the EC90 lay in the range of 0.5 to 5 µM.

Turning to `Cc1nc(N[C@H](c2ccc(-n3cccn3)cc2)C(F)(F)F)nc(N[C@@H]2C[C@H](CO)[C@@H](O)[C@H]2O)c1-c1nc2c(C)nccc2s1` [Example 1530], the EC90 is greater than 5 µM.

Take `Cc1nc(NCc2c(F)cccc2F)nc(N[C@@H]2C[C@H](CO)[C@@H](O)[C@H]2O)c1-c1nc2ccccc2s1` [Example 1910]: the EC90 was less than 0.5 µM.

For `Cc1nc(N[C@H](C)c2ccc(OC(F)(F)F)cc2)nc(N[C@@H]2C[C@H](CO)[C@@H](O)[C@H]2O)c1-c1nc2c(C3CC3)nccc2s1` [Example 1401], the EC90 was less than 0.5 µM.
